How the values were obtained:
Type in all cases: cell-based
MYB mRNA [1] = test: Gene panel canonical junction qPCR assay, decrease in CJ mRNA, Table 3; conditions: decrease in CJ mRNA levels, canonical junction qPCR, gene panel
Outline: (§1)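 IC50 is the concentration giving 50% response in decrease of the canonical junction transcript, fitted with a 4-parameter logistic equation. Transcripts were quantified by RT-qPCR in A673 or K562 cells after 24 h exposure to compounds dosed up to 10 uM in 3-fold steps.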

HTT mRNA [2] = test: as above; conditions: decrease in CJ mRNA levels, canonical junction qPCR, gene panel
Outline: as §1

MYB mRNA [3] = test: Splicing RT-qPCR assay (THP), Table 2A; conditions: Table 2A, THP; for AC50: MYB alternative junction (AJ) mRNA, read-out: MYB AJ (AC50, increase in alternative junction mRNA); for IC50: MYB canonical junction (CJ) mRNA, read-out: MYB CJ (IC50, decrease in canonical junction mRNA)
[4] = test system: SH-SY5Y (human neuroblastoma) cells; test: Cell viability, Cell Titer Glo 2.0 assay; conditions: read-out: Viability SHSY5Y.3 GI50
Outline: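 Steps: serial DMSO dilution of compound, 1:100 dilution into medium, addition to cells (0.1% DMSO final). Incubate 72 h at 37 °C, 5% CO2. Assay with CellTiter-Glo 2.0 reagent.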

HTT mRNA [5] = test: Splicing RT-qPCR assay (THP), Table 2A; conditions: Table 2A, THP; for AC50: HTT alternative junction (AJ) mRNA, read-out: HTT AJ (AC50, increase in alternative junction mRNA); for IC50: HTT canonical junction (CJ) mRNA, read-out: HTT CJ (IC50, decrease in canonical junction mRNA)

| SMILES | IC50 (MYB mRNA [1]) | IC50 (HTT mRNA [2]) | AC50 (MYB mRNA [3]) | IC50 (MYB mRNA [3]) | GI50 [4] | AC50 (HTT mRNA [5]) | IC50 (HTT mRNA [5]) |
| --- | --- | --- | --- | --- | --- | --- | --- |
| COc1cc2c(N3CCC(NC4CC4)CC3)ccc(C(=O)Nc3cc(CNS(C)(=O)=O)c4nn(C)cc4c3)n2n1 [Compound 821] | 0.1 to 1 µM | 1 to 10 µM | 0.1 to 1 µM | 0.1 to 1 µM | 1 to 10 µM | > 10 µM | 1 to 10 µM |
| Cc1cc2c(N3CCC(NC4CC4)CC3)ccc(C(=O)Nc3cc(CNS(C)(=O)=O)c4nn(C)cc4c3)n2n1 [Compound 822] | 0.1 to 1 µM | > 10 µM | 0.1 to 1 µM | 0.1 to 1 µM | 0.1 to 1 µM | > 10 µM | > 10 µM |
| Cn1cc2cc(NC(=O)c3ccc(N4CCC(NC5CC5)CC4)c4cn(C)nc34)cc(Cn3ccnn3)c2n1 [Compound 823] | 1 to 10 µM | > 10 µM | 0.1 to 1 µM | 1 to 10 µM | 1 to 10 µM | > 10 µM | > 10 µM |
| Cn1cc2cc(NC(=O)c3ccc(N4CCC(NC5CC5)CC4)c4cn(C)nc34)cc(Cn3nccn3)c2n1 [Compound 824] | 1 to 10 µM | > 10 µM | 1 to 10 µM | 1 to 10 µM | 1 to 10 µM | > 10 µM | > 10 µM |
| CNC1CCN(c2ccc(C(=O)Nc3cn4cc(C)nc(CNS(C)(=O)=O)c4n3)c3nn(C)cc23)CC1 [Compound 825] | 1 to 10 µM | > 10 µM | 1 to 10 µM | 1 to 10 µM | > 10 µM | > 10 µM | > 10 µM |
| Cc1cn2cc(NC(=O)c3ccc(N4CCC5(CCCN5)CC4)c4cn(C)nc34)nc2c(CNS(C)(=O)=O)n1 [Compound 826] | > 10 µM | > 10 µM | > 10 µM | > 10 µM | > 10 µM | > 10 µM | > 10 µM |
| Cc1cn2cc(NC(=O)c3ccc(N4CCC(NC5CC5)CC4)c4cn(C)nc34)nc2c(CNC(N)=O)n1 [Compound 829] | > 10 µM | > 10 µM | > 10 µM | > 10 µM | > 10 µM | > 10 µM | > 10 µM |
| Cc1cn2cc(NC(=O)c3ccc(N4CCC(NC5CC5)CC4)c4cn(C)nc34)nc2c(Cn2cnc3c(N)ncnc32)n1 [Compound 830] | > 10 µM | > 10 µM | > 10 µM | > 10 µM | > 10 µM | > 10 µM | > 10 µM |
| Cc1cn2cc(NC(=O)c3ccc(N4CCC(NC5CC5)CC4)c4cn(C)nc34)nc2c(Cn2cnc3ncnc(N)c32)n1 [Compound 831] | 0.1 to 1 µM | 0.1 to 1 µM | 0.1 to 1 µM | 0.1 to 1 µM | 0.1 to 1 µM | 0.1 to 1 µM | 0.1 to 1 µM |
| CNS(=O)(=O)CCc1nc(C)cn2cc(NC(=O)c3ccc(N4CCC(NC5CC5)CC4)c4cn(C)nc34)nc12 [Compound 832] | 1 to 10 µM | 1 to 10 µM | 1 to 10 µM | 1 to 10 µM | 1 to 10 µM | 1 to 10 µM | 1 to 10 µM |
| C=CCNC1CCN(c2ccc(C(=O)Nc3cc(CNC(=O)OC)c4nn(C)cc4c3)c3nn(C)cc23)CC1 [Compound 833] | 0.1 to 1 µM | 1 to 10 µM | 0.1 to 1 µM | 0.1 to 1 µM | 1 to 10 µM | 1 to 10 µM | 1 to 10 µM |
| Cn1cc2cc(NC(=O)c3ccc(N4CCC(NC5CC5)CC4)c4cn(C)nc34)cc(CNC3(C)COC3)c2n1 [Compound 834] | > 10 µM | > 10 µM | > 10 µM | > 10 µM | > 10 µM | > 10 µM | > 10 µM |
| C=CCNC1CCN(c2ccc(C(=O)Nc3cc(CNC4(C)COC4)c4nn(C)cc4c3)c3nn(C)cc23)CC1 [Compound 835] | > 10 µM | > 10 µM | > 10 µM | > 10 µM | > 10 µM | > 10 µM | > 10 µM |
| C=CCNC1CCN(c2ccc(C(=O)Nc3cc(CNS(C)(=O)=O)c4nc(C)cn4c3)c3nn(C)cc23)CC1 [Compound 836, 4-[4-(allylamino)-1-piperidyl]-N-[8-(methanesulfonamidomethyl)-2-methyl-imidazo[1,2-a]pyridin-6-yl]-2-methyl-indazole-7-carboxamide] | 0.1 to 1 µM | > 10 µM | 0.1 to 1 µM | 0.1 to 1 µM | 1 to 10 µM | > 10 µM | > 10 µM |
| Cc1cn2cc(NC(=O)c3ccc(N4CCC(NC5CC5)CC4)c4cn(C)nc34)nc(CNS(C)(=O)=O)c2n1 [Compound 837, 4-[4-(cyclopropylamino)-1-piperidyl]-N-[8-(methanesulfonamidomethyl)-2-methyl-imidazo[1,2-a]pyrazin-6-yl]-2-methyl-indazole-7-carboxamide] | < 0.1 µM | 1 to 10 µM | < 0.1 µM | < 0.1 µM | 0.1 to 1 µM | 1 to 10 µM | 1 to 10 µM |
| COc1cc2c(N3CCC(NC4CC4)CC3)ccc(C(=O)Nc3cc(CNS(C)(=O)=O)c4nc(C)cn4c3)n2n1 [Compound 838] | 1 to 10 µM | > 10 µM | 1 to 10 µM | 1 to 10 µM | 1 to 10 µM | > 10 µM | > 10 µM |
| Cc1cn2c(N3CCC(NC4CC4)CC3)ccc(C(=O)Nc3cc(CNS(C)(=O)=O)c4nn(C)cc4c3)c2n1 [Compound 839] | 0.1 to 1 µM | 1 to 10 µM | 0.1 to 1 µM | 0.1 to 1 µM | 1 to 10 µM | 1 to 10 µM | 1 to 10 µM |
| Cn1cc2cc(NC(=O)c3ccc(N4CCC(NC5CC5)CC4)c4cn(C)nc34)cc(CCNS(C)(=O)=O)c2n1 [Compound 840] | 1 to 10 µM | 1 to 10 µM | 1 to 10 µM | 1 to 10 µM | > 10 µM | > 10 µM | 1 to 10 µM |
| CN(C)c1ccc(C(=O)Nc2cc(CNS(C)(=O)=O)c3nn(C)cc3c2)c2nn(C)cc12 [Compound 841] | > 10 µM | > 10 µM | > 10 µM | > 10 µM | > 10 µM | > 10 µM | > 10 µM |
| Cc1cn2nc(NC(=O)c3ccc(N4CCC(NC5CC5)CC4)c4cn(C)nc34)cc(CNS(C)(=O)=O)c2n1 [Compound 842] | > 10 µM | > 10 µM | > 10 µM | > 10 µM | 1 to 10 µM | > 10 µM | > 10 µM |
| COc1nc2c(C(=O)Nc3cc(CNS(C)(=O)=O)c4nn(C)cc4c3)ccc(N3CCC(NC4CC4)CC3)c2s1 [Compound 843] | > 10 µM | > 10 µM | > 10 µM | > 10 µM | > 10 µM | > 10 µM | > 10 µM |
| Cn1cc2cc(NC(=O)c3ccc(N4CCCCC4)c4cn(C)nc34)cc(CNS(C)(=O)=O)c2n1 [Compound 844] | > 10 µM | > 10 µM | > 10 µM | > 10 µM | 1 to 10 µM | > 10 µM | > 10 µM |

From patent publication US20260285853A1, “COMPOUNDS AND METHODS FOR MODULATING SPLICING” (REMIX THERAPEUTICS INC., priority 2023, published 2026)
